Legend:
HeLa cells = assay: Luciferase transfection efficiency of triple complex in HeLa cells; format: cell-based; conditions: for luciferase activity for various peptides: DNA:peptide:DP liposomes 1:4:4 (w/w/w), compared to Tat and Sc-Tat control peptides, FIG. 9A
Protocol: In order to test transfection efficiency, the TatC peptide was precomplexed with the pcDNA3-luciferase vector DNA in 50 ul OPTI-MEM medium and was incubated for 5 minutes at room temperature. The DP liposomes was prepared in a 50 ul OPTI-MEM medium and added to the preformed complex of the TatC peptide and pcDNA3-luciferase vector DNA. The ratio of each component in the triple complex of the TatC peptide/DNA/DP liposomes was adjusted to 3:1:5 respectively. The triple complex of TatC peptide/DNA/DP liposomes was incubated for 10 minutes at room temperature and used for transfection into cells. After 5 hr incubation, 300 ul/well of the OPTI-MEM medium containing 20% Fetal Bovine Serum (FBS) was added into each transfection well. Further incubation for 16 hours was carried out before measuring transfection efficiency in luciferase activity using a luciferase assay kit (Promega, USA). To check luciferase activity of the pcDNA3-luciferase vector DNA, the following procedure was adopted. Cells were washed with PBS buffer (without Mg^2+ or Ca^2+) and lysed in 100 μl/well of 1×CCLR solution (Cell culture Lysis Reagent, 25 mM Tris-phosphate [pH 7.8], 2 mM DTT, 2 mM 1,2-diaminocyclohexane-N,N,N′,N′-tetraacetic acid, 10% glycerol, 1% Triton X-100). Cell lysates was centrifuged at 12,000×g for 1 minute and 50 ul supernatant was carefully harvested without disturbing the cell pellet. The cell lysates then mixed with 20 μl Luciferase Assay reagent. Luciferase activity was tested using a luminometer (Berthold detection systems, Sirius, Germany). As a negative control, the DP liposomes alone. […]
To examine transfection efficiency in the presence or absence of serum, the TatC/DNA(pcDNA3-luc)/DP liposomes triple complex of the present invention was transfected into HeLa and K562 cells in a medium with or without 10% FBS (FIG. 13A and B). A complex of DNA and liposomes was used as a negative control.

cells = assay: Luciferase transfection efficiency of TatC peptide/DNA/cationic liposome triple complex (FIG. 1, FIG. 2); format: cell-based
Protocol: In order to test transfection efficiency, the TatC peptide was precomplexed with the pcDNA3-luciferase vector DNA in 50 ul OPTI-MEM medium and was incubated for 5 minutes at room temperature. The DP liposomes was prepared in a 50 ul OPTI-MEM medium and added to the preformed complex of the TatC peptide and pcDNA3-luciferase vector DNA. The ratio of each component in the triple complex of the TatC peptide/DNA/DP liposomes was adjusted to 3:1:5 respectively. The triple complex of TatC peptide/DNA/DP liposomes was incubated for 10 minutes at room temperature and used for transfection into cells. After 5 hr incubation, 300 ul/well of the OPTI-MEM medium containing 20% Fetal Bovine Serum (FBS) was added into each transfection well. Further incubation for 16 hours was carried out before measuring transfection efficiency in luciferase activity using a luciferase assay kit (Promega, USA). To check luciferase activity of the pcDNA3-luciferase vector DNA, the following procedure was adopted. Cells were washed with PBS buffer (without Mg^2+ or Ca^2+) and lysed in 100 μl/well of 1×CCLR solution (Cell culture Lysis Reagent, 25 mM Tris-phosphate [pH 7.8], 2 mM DTT, 2 mM 1,2-diaminocyclohexane-N,N,N′,N′-tetraacetic acid, 10% glycerol, 1% Triton X-100). Cell lysates was centrifuged at 12,000×g for 1 minute and 50 ul supernatant was carefully harvested without disturbing the cell pellet. The cell lysates then mixed with 20 μl Luciferase Assay reagent. Luciferase activity was tested using a luminometer (Berthold detection systems, Sirius, Germany). As a negative control, the DP liposomes alone.
The TatC peptide/DNA (pcDNA3-luciferase vector)/LFA liposome complex was prepared as described in Example 3.1. Transfection was carried out according to the manufacturer's recommended protocol (Life Technologies, USA), and was tested for luciferase activity.
To deteremine if enhanced transfection efficiency could be attained, a TatC Peptide/DNA/cationic liposomes triple complex were formed by mixing them in different order. […]

K562 cells = assay: Luciferase transfection efficiency of triple complex in K562 cells; format: cell-based; conditions: TatC/DNA(pcDNA3-luc)/DP liposomes, FIG. 13B
Protocol: In order to test transfection efficiency, the TatC peptide was precomplexed with the pcDNA3-luciferase vector DNA in 50 ul OPTI-MEM medium and was incubated for 5 minutes at room temperature. The DP liposomes was prepared in a 50 ul OPTI-MEM medium and added to the preformed complex of the TatC peptide and pcDNA3-luciferase vector DNA. The ratio of each component in the triple complex of the TatC peptide/DNA/DP liposomes was adjusted to 3:1:5 respectively. The triple complex of TatC peptide/DNA/DP liposomes was incubated for 10 minutes at room temperature and used for transfection into cells. After 5 hr incubation, 300 ul/well of the OPTI-MEM medium containing 20% Fetal Bovine Serum (FBS) was added into each transfection well. Further incubation for 16 hours was carried out before measuring transfection efficiency in luciferase activity using a luciferase assay kit (Promega, USA). To check luciferase activity of the pcDNA3-luciferase vector DNA, the following procedure was adopted. […]
In order to test transfection efficiency of the triple complex, TatC peptide and liposomes (DP or LFA) were mixed with plasmid DNA in various ratios. […] Luciferase activity was then measured as described in Example 3.1.
The TatC peptide shown in Example 2.1 was modified with RGD amino acid sequence at both N-and C-termini. […] Luciferase activity was measured for each transfected cells as described in Example 3.1. […]

[1] = system: 293, HT-29, HL-60, MCF-7, A549, NC1-H1299, WI-38VA13, HepG2 and Hep3B cells; assay: Luciferase transfection efficiency of triple complex in 9 different cell lines; format: cell-based, human; conditions: various ratios
WRT7/P2 cells = assay: Cellular uptake of FITC-labeled oligonucleotide; format: cell-based, rat; conditions: TatC peptide/DNA/LFA triple complex compared to LFA liposomes alone; FIG. 8
Protocol: Next, transfection efficiency of nucleic acid by the triple complex was tested for oligonucleotides labeled with FITC at both ends. Oligonucleotides were complexed with the TatC peptide and LFA liposomes and were transfected to a rat monocytic cell line, WRT7/P2. The transfected cells were then assayed for FITC-fluorescence. We observed that cellular uptake of the oligonucleotides with the TatC peptide/DNA/LFA triple complex was much higher than delivered with LFA liposomes alone (FIG. 8). […] Therefore, the TatC peptide delivery system of the present invention may be effectively utilized for efficient delivery into cells regardless of the types of DNA to be delivered.

kidney of SD rats = assay: In vivo delivery of LacZ plasmid by retrograde ureteral injection, X-gal staining of kidney sections; parameters: species or system rat; conditions: TatC:DNA:DP=4:1:4, retrograde injection, male SD rats, compared to DNA/liposome or DNA alone, FIG. 16
Protocol: To test the transfection efficiency of the peptide/DNA/liposomes triple complex in vivo, the following experiment was performed. Male Sprague-Dawley (SD) rats (Hamamatsu, Shizuoka, Japan) were supplied from SLC and were housed in groups of 6 with free access to standard chow and water. Male SD rats, weighing 200-250 g, were used in these experiments. After anesthesia by the intraperitoneal injection of pentobarbital (5 mg/100 g body weight), the left kidney was exposed via an abdominal midline incision. Rats were subjected to ureteral ligation proximal to the left kidney, which was followed by retrograde injection of the triple complex (TatC: DNA: DP=4:1:4) using a 24 gauge catheter syringe. Kidneys were harvested 24 hours after injection of the triple complex. and embedded in a Tissue-Tek™ OCT compound (Miles, Elkhart, Ill.) under liquid nitrogen. Tissue blocks of the perfusion-fixed kidney with 4% paraformaldehyde were cryosectioned to 10 μm thickness and mounted on Poly-Prep™ slides (Sigma, St. Louise, Mo.). After dissection of individual kidneys, kidney sections were fixed with 0.05% glutaraldehyde in PBS by perfusion for 15 min, and incubated in X-gal solution (1.5 mM potassium ferricyanide, 1.5 mM potassium ferrocyanide, and 1% X-gal) at 37° C. for 4 h. Tissue sections of 4 μm were counterstained with hematoxylin and examined using a microscope at 400 fold magnification.

For RGDRKKRRQRRRPPQCRGD (RGD-TatC-RGD), the “luciferase activity for various peptides” value (HeLa cells) was “markedly higher luciferase activity”.

In the case of “RKKRRQRRRPPQ (Tat) [Tat peptide containing the NLS motif without any modification, control, reference compound]”, the “luciferase activity for various peptides” value (HeLa cells) is reported as “comparably low”.

RKKRRQRRRPPQC (TatC) was tested, and the “transfection efficiency according to mixing order” value (cells; TatC peptide and DNA mixed first, then cationic liposome (LFA), compared with other mixing orders, FIG. 2) was “highest”, the “transfection activity (luciferase)” value (cells; TatC peptide/DNA/LFA liposome complex compared to LFA liposomes only, FIG. 1) was “higher transfection activity” and the luciferase activity (cells; triple complex TatC peptide/DNA/DP liposomes 3:1:5, compared to DP liposomes alone, FIG. 1) was “significantly enhances luciferase activity”. For the same sequence, the “luciferase activity with or without 10% FBS” value (K562 cells) was “higher in medium containing serum”, the “luciferase activity for various peptides” value (HeLa cells) was “markedly higher luciferase activity” and the “luciferase activity with or without 10% FBS” value (HeLa cells; TatC/DNA(pcDNA3-luc)/DP liposomes, HeLa, FIG. 13A) was “higher in medium containing serum”. For the same sequence, the luciferase activity ([1]; triple complex TatC peptide/DNA/DP, compared to DP liposomes alone, FIG. 6) was “remarkably higher luciferase activity”, the luciferase activity ([1]; triple complex TatC peptide/DNA/LFA, compared to liposomes alone, FIG. 7) was “Analogous results” and the “cellular uptake of FITC-labeled oligonucleotides (FITC-fluorescence)” value (WRT7/P2 cells) was “much higher”. For the same sequence, the “expression of the β-galactosidase gene in kidney” value (kidney of SD rats) was “observed only in the group treated with the complex composed of TatC/DNA/liposomes”.

In the case of RKKRRQRRRPPQCRGDRGD (TatC-RGD-RGD), the “luciferase activity for various peptides” value (HeLa cells) is reported as “markedly higher luciferase activity”.

For “RRKRQRKRRPQP (Scrambled Tat(Sc-Tat)) [scrambled Tat peptide with random disturbance of the NLS motif, negative control, reference compound]”, the “luciferase activity for various peptides” value (HeLa cells) was “comparably low”.

Source: patent publication US7297759B2, “Peptides for increasing transfection efficiency” (Welgene, Inc., priority 2002, dated 2007)
